{"source": "patent US7321027B2", "about": "“Small technetium-99m and rhenium labeled agents and methods for imaging tumors” (President and Fellows of Harvard College, priority 2000, dated 2008)", "tested_on": "B16/F0 cells", "test": "Tumor-cell uptake in the presence of DTG", "assay_type": "cell-based, murine", "details": "DTG 90 μM, 30 min prior, 37° C.", "text": "J. Labelled Compd. Radiopharm. 1994, 35, 242-244; Vilner, B. J.; John, C. S.; Bowen, W. D. Sigma-I and Sigma-2 Receptors Are Expressed in a Wide Variety of Human and Rodent Tumor Cell Lines. Cancer Res. 1995, 55, 408-413; and John, C. S.; Vilner, B. J.; Gulden, M. E.; Efange, S. M. N.; Langason, R. B.; Moody, T. W.; Bowen, W. D. Synthesis and Pharmacological Characterization of 4-[^125I]-N-(N-Benzylpiperidin-4-yl)-4-iodobenzamide: A High Affinity σ Receptor Ligand for Potential Imaging of Breast Cancer. […] Pre-incubation of the tumor cells with DTG (90 μM), 30 min prior to the uptake experiments with the ^99mTc-complexes, yields a lower tumor-cell uptake for complexes Tc-(Compound A) (29% less), Tc-(Compound C) (33% less), and Tc-(Compound D) (32% less) at 37° C. (FIG. 4). Additional dose-response experiments conducted with intact B16/F0 cells at 37° C. with Tc-(Compound C) and DTG as the inhibitor (FIG. 3) show a DTG concentration-dependent decrease in the uptake of the complex.\nThe effect of the inhibitor DTG on cell uptake of these complexes was studied by addition of the inhibitor at various concentrations to the cell suspension 30 min prior to addition of the ^99mTc-complexes. Fresh DTG stock solutions were made by dissolving DTG (3.0 mg, 12.5 μmol) in 0.38 mL PBS and 0.12 mL hydrochloric acid (0.1 N) and subjecting the mixture to ultrasound until a clear solution was obtained, followed by the addition of 0.50 mL FBS to produce a neutral solution at pH 7.4. The stock solutions were diluted by an appropriate amount of S-MEM, and aliquots between 5 μL and 25 μL were added to the cell suspension such that the final concentration of DTG was between 0.02 μM and 120 μM in a total cell suspension volume of 350 μL."}
{"molecule": "CCN(CC)CCN1CC[S][99Tc]2(=[O])[S]CC[N]2C(=O)C1", "note": "(stereo not shown) [Tc-(Compound A)]", "values": [{"measurement": "lower tumor-cell uptake after pre-incubation with DTG", "result": 29, "unit": "%"}]}
